According to patent US20250188032A1, “NITROGEN-CONTAINING HETEROCYCLIC COMPOUNDS AND USES THEREOF” (BNH RESEARCH CO., LTD., priority 2022, published 2025):

Assays:
[1] = system: APP/PS1 mice hippocampus (Schaffer collateral-CA1); test: fEPSP slope and LTP in hippocampus of Alzheimer's animal model; assay type: in vivo; conditions: 15 months old
Procedure: For intravenous injection, the tail vein injection method was used. […] In the drug injection test, the compound was administered once a day for about 11 to 13 days. 5 mice were used for the compound administration group and the control group, respectively.
For TC or hippocampus slice preparation. 9 to 10 weeks-old male C57BL/6J mice were anesthetized with isoflurane. Then, the brain was rapidly cooled via transcardial perfusion with ice-cold sucrose-artificial cerebrospinal fluid (aCSF). The brain was removed and placed in ice-cold sucrose aCSF. Paracoronal slices were prepared at an angle of 50° relative to the midline on a ramp at an angle of 10°. […]
Field recordings were made with a concentric bipolar electrode positioned in the stratum radiatum of the CA1 region using an extracellular glass pipette (3.5 MΩ) filled with aCSF. […] In all fEPSP experiments, the test stimulation were measured prior to the beginning of all the experiments (30 μA) and a test-pulse stimulation strength that evokes 50% of the maximum fEPSP was used. Baseline synaptic responses was recorded for 30 minutes, and then long-term potentiation (LTP) was induced by high-frequency stimulation (HFS; 100 Hz, 4 trains, 1 s duration, 20 s inter-train interval). […]
Excitatory postsynaptic potential (EPSP) was recorded by the whole-cell patch clamp method using a patch clamp amplifier (molecular devices, USA). […]

HDAC5 = HDAC5 (Homo sapiens, UniProt Q9UQL6); test: HDAC catalytic activity, fluorogenic substrate; assay type: biochemical; conditions: 10-dose, 3-fold serial dilution starting at 100 μM, duplicates
Procedure: (§1) The compound (racemate) was resuspended in 100 mM DMSO and tested in a 10-dose IC50 with 3-fold serial dilution starting at 100 μM against HDACs 1-9, and 11. As reference compounds, Trichostatin A (TSA) and TMP269 were tested in a 10-dose IC50 with 3-fold serial dilution starting at 10 μM or 1 μM.
(§2) 10 μM Fluorogenic peptide from p53 residues 379-382 (RHKK(Ac)AMC) was used for the substrate for HDAC 1, 2, 3, and 6, 50 μM Fluorogenic HDAC Class2a Substrate (Trifluoroacetyl Lysine) was used for the substrate for HDAC 4, 5, 7, 9, and 11, 100 μM Fluorogenic peptide from p53 residues 379-382 (RHK(Ac)K(Ac)AMC) was used for the substrate for HDAC8.
(§3) IC50 values were calculated using the GraphPad Prism 4 program based on a sigmoidal dose-response equation and the blank (DMSO) value concentration was entered as 1.00E-12 M for curve fitting.

HDAC6 = biological target: T1, HDAC6 (Homo sapiens, UniProt Q9UBN7); test: HDAC catalytic activity, fluorogenic substrate; assay type: biochemical; conditions: 10-dose, 3-fold serial dilution starting at 100 μM, duplicates
T1 sequence (Q9UBN7 1-1215): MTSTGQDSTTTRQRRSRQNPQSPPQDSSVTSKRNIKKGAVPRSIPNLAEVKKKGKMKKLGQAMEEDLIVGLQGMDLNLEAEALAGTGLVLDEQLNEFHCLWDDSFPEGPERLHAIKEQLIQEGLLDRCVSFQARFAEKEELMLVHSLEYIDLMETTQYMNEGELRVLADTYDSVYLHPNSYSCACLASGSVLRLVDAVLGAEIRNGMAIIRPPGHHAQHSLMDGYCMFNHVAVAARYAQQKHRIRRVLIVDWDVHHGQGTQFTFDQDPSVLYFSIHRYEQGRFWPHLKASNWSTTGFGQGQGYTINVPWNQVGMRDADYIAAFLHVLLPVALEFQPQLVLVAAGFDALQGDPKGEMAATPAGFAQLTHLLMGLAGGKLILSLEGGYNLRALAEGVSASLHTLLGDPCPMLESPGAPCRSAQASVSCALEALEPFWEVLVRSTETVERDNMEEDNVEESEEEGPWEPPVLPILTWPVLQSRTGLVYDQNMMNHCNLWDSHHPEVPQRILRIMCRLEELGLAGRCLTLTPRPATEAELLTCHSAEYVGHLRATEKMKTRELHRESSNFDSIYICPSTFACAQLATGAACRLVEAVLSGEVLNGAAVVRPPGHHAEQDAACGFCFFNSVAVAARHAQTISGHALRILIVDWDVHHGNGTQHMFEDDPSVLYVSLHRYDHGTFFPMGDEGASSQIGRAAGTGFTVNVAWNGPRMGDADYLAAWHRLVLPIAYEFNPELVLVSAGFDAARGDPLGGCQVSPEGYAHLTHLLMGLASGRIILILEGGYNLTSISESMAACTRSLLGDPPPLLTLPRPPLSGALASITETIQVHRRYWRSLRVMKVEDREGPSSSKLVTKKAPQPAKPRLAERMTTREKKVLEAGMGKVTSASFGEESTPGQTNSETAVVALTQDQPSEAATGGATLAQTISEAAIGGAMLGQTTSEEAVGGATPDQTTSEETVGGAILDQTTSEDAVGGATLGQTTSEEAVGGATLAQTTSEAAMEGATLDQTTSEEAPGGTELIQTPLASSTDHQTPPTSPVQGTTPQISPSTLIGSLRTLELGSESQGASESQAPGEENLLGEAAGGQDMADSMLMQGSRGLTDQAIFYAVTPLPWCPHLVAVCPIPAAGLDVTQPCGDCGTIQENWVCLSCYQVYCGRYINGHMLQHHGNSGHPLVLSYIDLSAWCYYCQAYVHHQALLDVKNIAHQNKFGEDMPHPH
Procedure: as §1, §2, §3

HDAC9 = HDAC9 (Homo sapiens, UniProt Q9UKV0); test: HDAC catalytic activity, fluorogenic substrate; assay type: biochemical; conditions: 10-dose, 3-fold serial dilution starting at 100 μM, duplicates
Procedure: as §1, §2, §3

Sequence of HDAC5 (Q9UQL6 whole entry, species assumed): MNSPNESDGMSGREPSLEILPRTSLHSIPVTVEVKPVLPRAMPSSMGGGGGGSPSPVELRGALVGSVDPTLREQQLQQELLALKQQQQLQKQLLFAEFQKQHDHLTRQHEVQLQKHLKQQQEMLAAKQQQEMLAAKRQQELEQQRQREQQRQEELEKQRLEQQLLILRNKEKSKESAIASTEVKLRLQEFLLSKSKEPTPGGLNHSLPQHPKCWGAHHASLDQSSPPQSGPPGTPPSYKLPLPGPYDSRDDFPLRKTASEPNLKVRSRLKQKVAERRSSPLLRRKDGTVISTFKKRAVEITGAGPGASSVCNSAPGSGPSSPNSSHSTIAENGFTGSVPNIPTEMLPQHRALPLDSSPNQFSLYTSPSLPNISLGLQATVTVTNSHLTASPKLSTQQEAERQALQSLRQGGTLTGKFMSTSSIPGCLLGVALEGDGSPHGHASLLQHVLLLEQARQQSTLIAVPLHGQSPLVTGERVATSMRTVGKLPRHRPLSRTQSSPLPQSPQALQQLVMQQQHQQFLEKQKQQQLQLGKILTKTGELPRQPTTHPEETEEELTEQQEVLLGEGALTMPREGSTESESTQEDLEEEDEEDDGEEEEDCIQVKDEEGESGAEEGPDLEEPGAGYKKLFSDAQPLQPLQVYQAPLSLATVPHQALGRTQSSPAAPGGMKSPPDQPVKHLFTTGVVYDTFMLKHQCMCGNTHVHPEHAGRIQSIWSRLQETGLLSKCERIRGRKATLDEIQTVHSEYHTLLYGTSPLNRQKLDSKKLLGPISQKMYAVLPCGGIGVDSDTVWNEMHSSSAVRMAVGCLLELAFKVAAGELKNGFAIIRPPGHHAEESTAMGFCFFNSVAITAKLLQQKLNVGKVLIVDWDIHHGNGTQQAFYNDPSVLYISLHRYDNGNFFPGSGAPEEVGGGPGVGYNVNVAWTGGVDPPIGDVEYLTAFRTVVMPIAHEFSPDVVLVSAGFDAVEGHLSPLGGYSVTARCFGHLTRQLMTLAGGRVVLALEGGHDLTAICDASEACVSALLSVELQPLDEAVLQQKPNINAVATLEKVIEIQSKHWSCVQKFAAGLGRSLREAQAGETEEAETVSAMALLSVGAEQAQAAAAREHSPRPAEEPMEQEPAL
Sequence of HDAC9 (Q9UKV0 whole entry): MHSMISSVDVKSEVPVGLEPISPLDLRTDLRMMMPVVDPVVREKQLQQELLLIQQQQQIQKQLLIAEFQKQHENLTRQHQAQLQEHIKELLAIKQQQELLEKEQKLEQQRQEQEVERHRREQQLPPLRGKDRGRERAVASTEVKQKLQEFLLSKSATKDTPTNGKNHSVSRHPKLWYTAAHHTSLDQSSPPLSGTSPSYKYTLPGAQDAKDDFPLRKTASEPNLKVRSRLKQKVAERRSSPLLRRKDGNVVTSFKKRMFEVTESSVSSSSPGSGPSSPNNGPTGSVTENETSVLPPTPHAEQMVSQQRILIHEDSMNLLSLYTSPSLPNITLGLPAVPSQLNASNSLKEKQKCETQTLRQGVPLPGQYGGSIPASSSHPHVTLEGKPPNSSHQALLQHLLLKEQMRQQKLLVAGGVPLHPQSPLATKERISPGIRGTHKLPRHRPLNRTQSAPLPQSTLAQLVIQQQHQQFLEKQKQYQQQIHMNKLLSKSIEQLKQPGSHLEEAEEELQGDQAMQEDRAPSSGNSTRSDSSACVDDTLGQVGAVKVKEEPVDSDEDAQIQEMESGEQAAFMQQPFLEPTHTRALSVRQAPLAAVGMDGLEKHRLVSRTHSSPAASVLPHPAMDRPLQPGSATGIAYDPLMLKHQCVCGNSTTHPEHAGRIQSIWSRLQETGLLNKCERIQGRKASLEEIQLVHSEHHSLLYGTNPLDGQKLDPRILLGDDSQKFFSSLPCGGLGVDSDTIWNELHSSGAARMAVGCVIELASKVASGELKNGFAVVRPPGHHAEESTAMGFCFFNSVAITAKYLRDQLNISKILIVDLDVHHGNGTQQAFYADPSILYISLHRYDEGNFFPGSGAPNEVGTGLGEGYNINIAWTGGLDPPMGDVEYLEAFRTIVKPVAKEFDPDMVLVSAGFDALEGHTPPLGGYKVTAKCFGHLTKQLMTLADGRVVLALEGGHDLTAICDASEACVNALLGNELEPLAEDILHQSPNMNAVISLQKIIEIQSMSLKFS

| Structure (SMILES) | Slope of fEPSP in CA1 region of Schaffer collateral circuit (synaptic efficacy) [1] | Synaptic long-term potentiation (LTP) of the excitatory SC pathway [1] | Inhibitory effect on HDAC5 catalytic activity (HDAC5) | Inhibitory effect on HDAC6 catalytic activity (HDAC6) | Inhibitory effect on HDAC9 catalytic activity (HDAC9) |
| --- | --- | --- | --- | --- | --- |
| C[C@@H]1CC[C@H](C(=O)O)CN1C(=O)Cc1ccc(F)cc1Cl [BnH12001 enantiomer (3S,6R, 98%<), (3S,6R)-1-(2-(2-chloro-4-fluorophenyl)acetyl)-6-methylpiperidine-3-carboxylic acid] | increased synaptic efficacy | significantly increased |  |  |  |
| CC1CCC(C(=O)O)CN1C(=O)Cc1ccc(F)cc1Cl (racemic) [BnH12001, 1-(2-(2-chloro-4-fluorophenyl)acetyl)-6-methylpiperidine-3-carboxylic acid] |  |  | did not show any inhibitory effect | did not show any inhibitory effect | did not show any inhibitory effect |
